Converted amounts (≈) assume the structure as drawn. Like-named read-outs stand apart in the source and are kept apart here.
Columns and labels:
[1] = tested on: Caco-2 colon cancer cells; experiment: In-vitro anticancer MTT assay; assay type: cell-based, human; details: for IC90: Homo sapiens
From the text: (§1) The bioactivity testing was done at two stages.

[2] = tested on: MCF-7 breast cancer cells; experiment: In-vitro anticancer MTT assay; assay type: cell-based, human; details: for IC90: Homo sapiens, MCF7, read-out: Cytotoxic properties (IC 90) MCF-7
From the text: as §1

[3] = tested on: COLO-320DM colon cancer cells; experiment: In-vitro anticancer MTT assay; assay type: cell-based, human; details: 6 h exposure, then 48 h in fresh media, 90% inhibition of cell growth; for IC90: Homo sapiens, COLO 320DM, read-out: Cytotoxic properties (IC 90) COLO-320 DM
From the text: as §1

[4] = tested on: Caco-2 colon cancer cells; experiment: Soft agar assay for colony formation (clonogenic assay); assay type: cell-based, human; details: compound in top soft agar; for Cytotoxic properties (IC 90) Caco-2: colony formation on soft agar; for IC90: Homo sapiens, Caco-2, colony formation on soft agar, read-out: Cytotoxic properties (IC 90) Caco-2
From the text: as §1

[5] = tested on: MCF-7 breast cancer cells; experiment: as above; assay type: cell-based, human; details: compound in top soft agar; for Cytotoxic properties (IC 90) MCF-7: colony formation on soft agar; for IC90: Homo sapiens, MCF7, colony formation on soft agar, read-out: Cytotoxic properties (IC 90) MCF-7
From the text: as §1

[6] = tested on: COLO-320DM colon cancer cells; experiment: as above; assay type: cell-based, human; details: colony formation on soft agar, compound in top soft agar; for IC90: Homo sapiens, COLO 320DM, read-out: Cytotoxic properties (IC 90) COLO-320 DM
From the text: as §1

[7] = tested on: KB-403 mouth cancer cells
Protocol: (§2) As a part of the studies on the isolation of anticancer compounds a number of taxanes were isolated from the needles of the plant Taxus wallichiana and tested for their anti-cancer properties against six human cancer cell lines in-vitro. The bioactivity testing was done at two stages. In the initial step, MTT assay was performed from which the inhibitory concentration (IC90) the concentration (μg/mL) of the taxanes required for 90% inhibition of cell growth was deduced. […] The MTT assay cannot discriminate between growth inhibition and cell death; it is an overall measurement of cell proliferation (Woerdenbag et al., 1993; J.Nat.Prod. 56 (6): 849–856). Therefore the IC90 data obtained by the MTT assay may overestimate the cell killing activity of a compound. […] Persons skilled in the art of anti-cancer drug discovery can perform both these assays.
(§3) The clonogenic assay for tumor cells which determines the actual cell death was performed to determine the cytotoxic potential of test compounds. The principle of clonogenic assay is to investigate the ability of an individual cell to form a colony on a soft agar plate containing various concentrations of test compounds.
(§4) Cells not able to form colonies are considered clonogenically dead (Beekman et al 1997; J.Nat.Prod. 60(4): 325–330). The concentration of test compound resulting in […] was denoted as IC90 and was used as a parameter for cytotoxicity. The assay was performed as described previously except that the test compounds were added into the top soft agar and the cells were plated out to form colonies. Anthracycline derivative doxorubicin and microtubule depolymerization inhibitor paclitaxel (Sigma Chem. Co., St. Loius, USA) both established anticancer agents were included as standard reference drugs.

[8] = tested on: KB-403 mouth cancer cells; remark: listed apart in the source
Protocol: as §2
(§5) The following six human cancer lines were procured from the Cell Repository of the National Center for Cell Sciences (NCSS) at Pune. Their corresponding ATCC No. and the organ from which they were isolated are also mentioned in Table 1 below:
(§6) Cytotoxicity testing in vitro was done by the method of Woerdenbag et al.,1993; J.Nat.Prod. 56 (6): 849–856). 2×10^3 cells/well were incubated in the 5% CO2 incubator for 24 h to enable them to adhere properly to the 96 well polysterene microplate (Grenier, Germany). Test compounds dissolved in 100% DMSO (Merck,Germany) in at least five doses were added and left for 6 h after which the compound plus media was replaced with fresh media and the cells were incubated for another 48 h in the CO2 incubator at 37° C. […] Then, 10 μl MTT [3-(4,5-dimethylthiazol-2-yl)-2,5-diphenyltetrazolium bromide; Sigma M 2128] was added, and plates were incubated at 37° C. for 4 h. 100 μl dimethyl sulfoxide (DMSO, Merck, Germany) were added to all wells and mixed thoroughly to dissolve the dark blue crystals. After a few minutes at room temperature to ensure that all crystals were dissolved, the plates were read on a SpectraMax 190 Microplate Elisa reader (Molecular Devices Inc., USA), at 570 nm. Plates were normally read within 1 h of adding the DMSO. The experiment was done in triplicate and the inhibitory concentration (IC) values were calculated as follows: % inhibition=[1-OD (570 nm) of sample well/OD (570 nm) of control well]×100. IC90 is the concentration μg/mL required for 90% inhibition of cell growth as compared to that of untreated control.

PA-1 ovary cancer cells [9] = experiment: In-vitro anticancer MTT assay; assay type: cell-based, human; details: for IC90: Homo sapiens, read-out: Cytotoxic properties (IC 90) PA-1; for IC90 / Cytotoxic properties (IC 90) PA-1: MTT assay, 6 h exposure, then 48 h in fresh media, 90% inhibition of cell growth
From the text: as §1

PA-1 ovary cancer cells [10] = experiment: Soft agar assay for colony formation (clonogenic assay); assay type: cell-based, human; details: colony formation on soft agar, compound in top soft agar; for IC90: Homo sapiens, read-out: Cytotoxic properties (IC 90) PA-1
From the text: as §1

[11] = tested on: WRL-68 liver cancer cells; experiment: In-vitro anticancer MTT assay; details: for IC90: Homo sapiens, WRL68, read-out: Cytotoxic properties (IC 90) WRL-68
Protocol: as §2, §5, §6

[12] = tested on: WRL-68 liver cancer cells; experiment: Soft agar assay for colony formation (clonogenic assay); details: for IC90: Homo sapiens, WRL68, read-out: Cytotoxic properties (IC 90) WRL-68
Protocol: as §2, §3, §4

[13] = MTT assay, 6 h exposure, then 48 h in fresh media, 90% inhibition of cell growth
[14] = clonogenic assay, colony formation on soft agar, compound in top soft agar
[15] = Caco-2, MTT assay, 6 h exposure, then 48 h in fresh media, 90% inhibition of cell growth, read-out: Cytotoxic properties (IC 90) Caco-2

Compound | Cytotoxic properties (IC 90) Caco-2 [1, 13] [mg/L] | Cytotoxic properties (IC 90) Caco-2 [4] [mg/L] | Cytotoxic properties (IC 90) KB-403 [7, 14] [mg/L] | Cytotoxic properties (IC 90) KB-403 [8, 13] [mg/L] | IC90 (PA-1 ovary cancer cells [9]) [mg/L] | IC90 [2, 13] [mg/L] | IC90 [3] [mg/L] | IC90 [4] [mg/L] | IC90 (PA-1 ovary cancer cells [10]) [mg/L] | IC90 [5] [mg/L] | IC90 [6] [mg/L] | IC90 [11] [mg/L] | IC90 [12] [mg/L] | Cytotoxic properties (IC 90) KB-403 [8] [mg/L] | also measured
C=C1[C@@H](OC(=O)/C=C/c2ccccc2)C[C@H](OC(C)=O)[C@]2(C)[C@@H]1C[C@@H]1C[C@H](OC(C)=O)C(C)=C([C@@H](OC(C)=O)[C@@H]2OC(C)=O)C1(C)C [2-deacetoxy taxinine J] | 0.009 | 0.25 | 28.18 | 3.5 | – | – | – | – | – | – | – | – | – | – | Cytotoxic properties (IC 90) MCF-7 [2, 13]: 6.5 mg/L; Cytotoxic properties (IC 90) COLO-320 DM [3]: 1.0 mg/L; Cytotoxic properties (IC 90) MCF-7 [5]: 7.94 mg/L; Cytotoxic properties (IC 90) COLO-320 DM [6]: 10.0 mg/L
CC(=O)O[C@H]1C[C@H]2OC[C@@]2(OC(C)=O)[C@H]2[C@H](OC(C)=O)[C@]3(C(C)(C)O)C[C@H](O)C(C)=C3[C@@H](O)[C@H](OC(C)=O)[C@]12C [10,13,deacetyl abeobaccatin IV] | – | – | – | >10.0 | – | – | – | – | – | – | – | – | – | – | Cytotoxic properties (IC 90) MCF-7 [2]: >10.0 mg/L
COc1cccc2c1C(=O)c1c(O)c3c(c(O)c1C2=O)C[C@@](O)(C(=O)CO)C[C@@H]3O[C@H]1C[C@H](N)[C@H](O)[C@H](C)O1 [Doxorubicin (Std), doxorubicin, reference compound] | – | – | – | – | 0.5 (≈ 0.92 µM) | 0.01 (≈ 0.0184 µM) | 0.08 (≈ 0.147 µM) | 0.079 (≈ 0.145 µM) | 10 (≈ 18.4 µM) | 0.8 (≈ 1.47 µM) | 0.1 (≈ 0.184 µM) | 1 (≈ 1.84 µM) | 3.98 (≈ 7.32 µM) | 0.06 | IC90 [1, 15]: 0.052 mg/L (≈ 0.0957 µM)
C=C1C2C[C@]3(C(C)(C)O)CC(O)C(C)=C3[C@@H](OC(=O)c3ccccc3)[C@H](OC(C)=O)[C@]2(C)[C@@H](OC(C)=O)C[C@@H]1O (some centres unmarked) [Brevifoliol, brevifoliol] | – | – | 0.398 | 0.035 | 6 (≈ 10.8 µM) | 0.004 (≈ 0.00719 µM) | 0.1 (≈ 0.18 µM) | 0.31 (≈ 0.557 µM) | 7.94 (≈ 14.3 µM) | 1.99 (≈ 3.57 µM) | 1 (≈ 1.8 µM) | > 10 | 15.8 (≈ 28.5 µM) | – | IC90 ([1]; Caco-2, read-out: Cytotoxic properties (IC 90) Caco-2): 0.85 mg/L (≈ 1.53 µM); activity against Caco-2 cancer cells, in words ([1]; summary of the bioassay data): highly inhibitory; activity against PA-1 cancer cells, in words (PA-1 ovary cancer cells [9]; summary of the bioassay data): highly inhibitory; activity against MCF-7 cancer cells, in words ([2]; summary of the bioassay data): highly inhibitory; activity against WRL-68 liver cancer cells, in words ([11]; summary of Table 2): active against all cancer cell lines except liver cancer (WRL-68); activity against KB-403 cancer cells, in words ([8]; summary of the bioassay data): highly inhibitory
CC(=O)O[C@H]1C(=O)[C@@]2(C)[C@H]([C@H](OC(=O)c3ccccc3)[C@]3(O)C[C@H](OC(=O)[C@H](O)[C@@H](NC(=O)c4ccccc4)c4ccccc4)C(C)=C1C3(C)C)[C@]1(OC(C)=O)CO[C@@H]1C[C@@H]2O [Taxol (Std), taxol, reference compound] | – | – | – | – | 0.9 (≈ 1.05 µM) | 0.85 (≈ 0.995 µM) | 0.01 (≈ 0.0117 µM) | 1.99 (≈ 2.33 µM) | 1.47 (≈ 1.72 µM) | 1.99 (≈ 2.33 µM) | 0.8 (≈ 0.937 µM) | 2.5 (≈ 2.93 µM) | 6.3 (≈ 7.38 µM) | 0.047 | IC90 [1, 15]: 0.065 mg/L (≈ 0.0761 µM); Cytotoxic properties (IC 90) KB-403 [7]: 7.94 mg/L
C=C1[C@H]2C[C@@H]3C[C@H](OC(C)=O)C(C)=C([C@@H](OC(C)=O)[C@H](OC(C)=O)[C@]2(C)[C@@H](OC(C)=O)C[C@@H]1O)C3(C)C [2-deacetoxy decinnamoyl taxinine J] | 6.4 | 31.82 | 0.11 | 0.01 | – | – | – | – | – | – | – | – | – | – | Cytotoxic properties (IC 90) PA-1 (PA-1 ovary cancer cells [9]): 10.0 mg/L; Cytotoxic properties (IC 90) COLO-320 DM [3]: >10.0 mg/L; Cytotoxic properties (IC 90) PA-1 (PA-1 ovary cancer cells [10]): 15.84 mg/L; Cytotoxic properties (IC 90) WRL-68 [11, 13]: 0.5 mg/L; Cytotoxic properties (IC 90) WRL-68 [12, 14]: 12.58 mg/L
2′-Deacetoxy austrospicatin | 1.0 | 3.16 | 0.44 | 4.5 | – | – | – | – | – | – | – | – | – | – | Cytotoxic properties (IC 90) PA-1 (PA-1 ovary cancer cells [9]): 4.0 mg/L; Cytotoxic properties (IC 90) MCF-7 [2, 13]: 3.5 mg/L; Cytotoxic properties (IC 90) PA-1 (PA-1 ovary cancer cells [10]): 6.3 mg/L; Cytotoxic properties (IC 90) MCF-7 [5]: 5.63 mg/L
Acetoxy brevifoliol | – | – | – | – | – | – | – | – | – | – | – | – | – | 10.0 | Cytotoxic properties (IC 90) KB-403 [7]: 1.0 mg/L; Cytotoxic properties (IC 90) WRL-68 [11]: 5.0 mg/L; Cytotoxic properties (IC 90) WRL-68 [12]: 7.0 mg/L
